Reference: article PMC8448162, “Single- and Multiple-Ascending-Dose Study of the Safety, Tolerability, and Pharmacokinetics of the Polymyxin Derivative SPR206” (Antimicrobial Agents and Chemotherapy, 2021)
Positions of bridges follow the written chain, without caps; N, C: chain ends. Non-standard residues stand in square brackets, D forms with d. Residues, ends and D or L forms follow the SMILES beside them. *: point of attachment. X1 = NC[C@@H](CC(=O)*)c1cccc(Cl)c1; Dab = NCC[C@H](N)C(=O)O; Dap = NC[C@H](N)C(=O)O

How the values were obtained:
healthy subjects [1] = assay: Safety and tolerability (adverse events, laboratory tests, ECG), first-in-human SAD/MAD study, 1-h i.v. infusion; type: in vivo
Experimental: This was a single-center, phase 1, randomized, double-blind, placebo-controlled, first-in-human study to assess the safety, tolerability, and PK of SPR206 following SAD and MAD administrations (Fig. 7). In the SAD phase, subjects received a single i.v. dose of SPR206, and in the MAD phase, subjects received i.v. doses of SPR206 every 8 h (q8h) over a period of 7 to 14 days. SPR206 was administered as a 1 h i.v. infusion.
In the SAD phase, healthy subjects were screened within 28 days prior to dosing and admitted to the clinical facility on day −1. A single i.v. dose of SPR206 or placebo was administered on day 1. Following completion of all safety assessments and sampling for PK analyses, subjects were discharged on day 2. A follow-up visit occurred 5 to 7 days after day 1 dosing.
In the SAD phase, subjects were randomized to one of seven cohorts consisting of 10-, 25-, 50-, 100-, 200-, 300-, and 400-mg doses of SPR206. Within each cohort, two subjects received placebo and six subjects received SPR206. Two subjects (sentinels) were dosed with SPR206 or placebo 48 h prior to the remaining subjects. The remaining six subjects were only dosed after no safety concerns were identified in the sentinel subjects. After each dose cohort had completed study drug dosing and safety evaluations, a safety monitoring group (SMG) reviewed blinded cumulative safety data (including day 5 to 7 follow-up data) to confirm the safety and tolerability of SPR206. Blood and urine samples were collected for assessment of PK parameters.
In the MAD phase, all subjects were admitted to the clinical facility on day −1. Dosing commenced on the morning of day 1. Three doses were administered daily at approximately 8 (±0.5)-hour intervals for a total of 7 consecutive days (cohorts 9 through 12) and 14 consecutive days (cohort 13). The last dose was administered on the morning of day 14. Subjects were discharged on day 16 following completion of all PK sample collection and safety assessments, and a follow-up visit occurred 12 to 14 days after the last dose.
The MAD phase began after completion of the SAD phase, and the appropriate starting dose level was established. Two subjects received placebo, and six subjects received SPR206 doses of 25, 50, 100, and 150 mg q8h for 7 days and 100 mg q8h for 14 days. In each cohort of the MAD, two subjects (sentinels) began dosing with SPR206 or placebo 72 h prior to the remaining subjects in this cohort. The remaining six subjects were only dosed after no safety concerns were identified by the principal investigator. After each MAD dose cohort had completed administration of study drug and all evaluations, the safety monitoring group reviewed blinded cumulative safety data (including the day 19 to 21 follow-up data) to confirm the safety and tolerability of the study drug. Blood and urine samples were collected to measure SPR206 drug levels to determine SPR206 PK parameters.
Safety assessments included clinical laboratory testing (hematology, coagulation, serum chemistry, urinalysis), vital signs (blood pressure, heart rate, body temperature, respiratory rate), physical examination, and triplicate 12-lead ECG to assess corrected QT interval by Fredericia (QTcF). In the SAD phase, continuous cardiac monitoring was performed from 1 h predose through 24 h postdose. Adverse events were recorded at each study visit.
Serum creatinine concentrations were measured from the clinical laboratory tests performed on days −1 and 15. Urine creatinine concentration were measured using 24 h collections prior to the first dose on day 1 and over 24 to 48 h following the start of infusion of the last dose (day 14).

healthy subjects [2] = assay: as above; conditions: in vivo
[3] = MAD, 25 mg q8h × 7 days (n = 6)
[4] = MAD, 50 mg q8h × 7 days (n = 6)
[5] = MAD, 100 mg q8h × 7 days (n = 6)
[6] = MAD, 100 mg q8h × 14 days (n = 6)
[7] = MAD, 150 mg q8h × 7 days (n = 6)
[8] = SAD, single i.v. dose 10 mg (n = 6)
[9] = SAD, single i.v. dose 50 mg (n = 6)
[10] = SAD, single i.v. dose 100 mg (n = 6)
[11] = SAD, single i.v. dose 200 mg (n = 6)
[12] = SAD, single i.v. dose 400 mg (n = 6)

CC(C)C[C@@H]1NC(=O)[C@@H](Cc2ccccc2)NC(=O)[C@H](CCN)NC(=O)[C@@H](NC(=O)[C@H](CN)NC(=O)[C@@H](NC(=O)C[C@H](CN)c2cccc(Cl)c2)[C@@H](C)O)CCNC(=O)[C@H]([C@@H](C)O)NC(=O)[C@H](CCN)NC(=O)[C@H](CCN)NC1=O [SPR206] (X1-T[Dap][Dab][Dab][dF]L[Dab][Dab]T; lactam 3-C (inferred))
At least one treatment-related adverse event (healthy subjects [1]; [3]): 1 (16.7) No. (%) of subjects | TEAE Infusion site phlebitis (healthy subjects [1]; [3]): 0 No. (%) of subjects | TEAE Headache (healthy subjects [1]; [4]): 2 (33.3) No. (%) of subjects | TEAE Infusion site phlebitis (healthy subjects [1]; [4]): 1 (16.7) No. (%) of subjects | TEAE Paresthesia oral (healthy subjects [1]; [4]): 2 (33.3) No. (%) of subjects | TEAE Headache (healthy subjects [1]; [5]): 2 (33.3) No. (%) of subjects | TEAE Infusion site phlebitis (healthy subjects [1]; [5]): 1 (16.7) No. (%) of subjects | TEAE Paresthesia oral (healthy subjects [1]; [5]): 1 (16.7) No. (%) of subjects | TEAE Dizziness (healthy subjects [1]; [6]): 2 (33.3) No. (%) of subjects | TEAE Headache (healthy subjects [1]; [6]): 1 (16.7) No. (%) of subjects | TEAE Infusion site phlebitis (healthy subjects [1]; [6]): 1 (16.7) No. (%) of subjects | TEAE Paresthesia oral (healthy subjects [1]; [6]): 1 (16.7) No. (%) of subjects | TEAE Constipation (healthy subjects [1]; [7]): 1 (16.7) No. (%) of subjects | TEAE Dry mouth (healthy subjects [1]; [7]): 2 (33.3) No. (%) of subjects | TEAE Infusion site phlebitis (healthy subjects [1]; [7]): 2 (33.3) No. (%) of subjects | TEAE Paresthesia oral (healthy subjects [1]; [7]): 2 (33.3) No. (%) of subjects | TEAE leading to drug withdrawal (healthy subjects [1]; [7]): 2 (33.3) No. (%) of subjects | At least one treatment-emergent adverse event (healthy subjects [1]; [8]): 1 (16.7) No. (%) of subjects | At least one treatment-related adverse event (healthy subjects [1]; [8]): 1 (16.7) No. (%) of subjects | At least one treatment-emergent adverse event (healthy subjects [1]; [9]): 1 (16.7) No. (%) of subjects | At least one treatment-related adverse event (healthy subjects [1]; [9]): 1 (16.7) No. (%) of subjects | At least one treatment-emergent adverse event (healthy subjects [1]; [10]): 1 (16.7) No. (%) of subjects | At least one treatment-related adverse event (healthy subjects [1]; [10]): 1 (16.7) No. (%) of subjects | At least one treatment-emergent adverse event (healthy subjects [1]; [11]): 2 (33.3) No. (%) of subjects | At least one treatment-related adverse event (healthy subjects [1]; [11]): 2 (33.3) No. (%) of subjects | TEAE Diarrhea (healthy subjects [1]; [12]): 2 (33.3) No. (%) of subjects | TEAE Fatigue (healthy subjects [1]; [12]): 2 (33.3) No. (%) of subjects | TEAE Paresthesia (healthy subjects [1]; [12]): 1 (16.7) No. (%) of subjects | effect on renal function (serum creatinine and creatinine clearance) (healthy subjects [1]; human, in vivo): no clinically significant effect on renal function | AEs of mild severity (healthy subjects [1]; in vivo): 84 % of all AEs | changes in vital signs, physical examination, or ECG parameters (healthy subjects [1]; in vivo): no clinically significant changes | effect on liver function (healthy subjects [1]; in vivo): no clinically significant effect on liver function | effect on the ECG (healthy subjects [1]; in vivo): no effect on the ECG | serious AEs (healthy subjects [1]; in vivo): No serious AEs | severe AEs (healthy subjects [1]; in vivo): no severe AEs | subjects with paresthesia events considered nervous system disorders (healthy subjects [1]; in vivo): 7.4% | subjects with oral hypoesthesia (healthy subjects [2]): 6 subjects | subjects with oral paresthesia (healthy subjects [2]): 5 subjects
